# Reference: patent publication US20120035244A1, “PARP1 TARGETED THERAPY” (THE REGENTS OF THE UNIVERSITY OF MICHIGAN, priority 2010, published 2012)
# Entries after “also recorded” stand apart in the source; their conditions may differ.
# How the values were obtained:
# PC3-ERG cells = test: Neutral COMET assay, ERG overexpressing PC3 cells versus controls; type: cell-based, human
# DU145 cells = test: Colony formation after radiation, isogenic DU145 model overexpressing T2:ERG; type: cell-based; conditions: DU145, pre-treated with 10 μM Olaparib
# Experimental: The effect of ETS overexpression on radioresistance was assayed. Isogenic PC3 or DU145 models overexpressing either T2:ERG or ERG with a deleted ETS domain were pre-treated with or without 10 μM Olaparib and then treated with different doses of radiation as indicated. Colony formation was assessed. Experiments were also performed in which cells were pre-treated with either PARP1 or control siRNA prior to radiation. Western blot analysis was used to assess PARP knockdown efficiency in the inset. Total Poly(ADP-ribose) (or PAR) levels were assessed by Western blot analysis from total cell lysates. All experiments were run in triplicate. Error bars are standard error of the mean.
# [1] = tested on: Ewing's sarcoma cell lines; test: Ewing's sarcoma cell lines: soft agar colony formation and neutral COMET assays; type: cell-based; conditions: with or without 10 μM Olaparib for 48 hours (COMET); soft agar colony formation
# Experimental: The effect of PARP1 inhibitors on Ewing's sarcoma cell lines was assayed. CADO-ES1 or RD-ES1 cells were treated with siRNA for 48 hours. Cells were then harvested and plated in a transwell migration assay. Forty eight hours later, cells were stained with crystal violet and the total number or invaded cells was quantified. Soft agar colony formation was performed on cells treated with or without Olaparib. Neutral COMET assays were performed on a panel of Ewing's Sarcoma cell lines. PC3 was used as an ETS negative control and PC3-ERG for comparison to an ETS positive model. Cells were treated with or without 10 μM Olaparib for 48 hours. D) As in C, except cells were pre-treated with siRNA for 48 hours. All experiments were run in triplicate. Error bars are standard error of the mean.
# BRCA2 shRNA PC3 cells = test: Neutral COMET assay, BRCA2 shRNA PC3 cells; type: cell-based, human; conditions: P=0.14 and P=0.003, two-way ANOVA
# Experimental: VCaP, PC3, PrEC or RWPE cells were seeded at 250,000 cells/mL in a 6-well plate 24 hours prior to treatment with siRNA, drug or vehicle control. After 48 hours, cells were trypsinized, harvest by centrifugation and re-suspend in PBS. Cell counts were then normalized to 1×10^5 cells/mL. Suspended cells (25 μL) were then mixed with 250 μL 1.0% ultrapure low melting point agarose (Invitrogen) made in 1× Tris-Borate buffer. The agarose-cell mixture was then dropped onto slides allowed to solidify at 4° C. in the dark for 20 minutes before immersion in COMET assay lysis solution (Trevigen, Gaithersburg, Md.) at 4° in the dark for 45 minutes. Excess buffer was then removed and slides were submerged in freshly prepared neutral solution (Tris Base 60.57 g, Sodium Acetate 204.12 g, dissolve in 450 ml of dH2O, adjust to pH=9.0 with glacial acetic acid) at room temperature in the dark for 40 minutes. Slides were then washed twice by immersing in 1×TBE buffer prior to neutral electrophoresis at 20 volts for 30 minutes. Slides were then fixed in 70% ethanol for 5 minutes. […] COMET tail moments were then assessed using COMETscore.v1.5 (AutoCOMET.com, Sumerduck, Va.) image processing software as described by the manufacturer with greater than 100 cells analyzed in triplicate experiments.
# [2] = tested on: RWPE cells overexpressing SLC45A3-BRAF; test: Basement membrane matrix invasion assay, RWPE-SLC45A3-BRAF cells; type: cell-based, human
# Experimental: (§1) For invasion assays, the prostate cell lines RWPE-1 and VCaP were transfected with siRNA or negative controls as indicated. NU7026 (Sigma) and NU1025 (Calbiochem) were dissolved in DMSO and stored at −20° C. in the dark. Forty-eight hours post-transfection/transduction, cells were seeded onto the basement membrane matrix (EC matrix, Chemicon, Temecula, Calif.) in the chamber insert with […] pores of a 24-well culture plate in serum free media. Cells were attracted to the lower chamber by the addition of complete media as a chemoattractant. After 48 hours incubation at 37° C. with 5% CO2, the non-invading cells and EC matrix were gently removed with a cotton swab. Invasive cells, which were located on the lower side of the membrane, were stained with crystal violet, air dried and photographed. To quantify the relative number of invaded cells, colorimetric assays were performed by treating the inserts with 150 μl of 10% acetic acid (v/v) and measuring absorbance of each condition at 560 nm using a spectrophotometer (GE Healthcare).
# [3] = tested on: RWPE cells transduced with ERG adenovirus; test: Basement membrane matrix invasion assay, RWPE cells transduced with ERG adenovirus; type: cell-based, human; conditions: P<0.01 for DNA-PKcs siRNA or NU7026>10 μM, P<0.05 for all PARP1 siRNA, NU1025 or Olaparib treatments
# Experimental: as §1
# VCaP cells = test: γ-H2A.X immunofluorescence, VCaP cells; type: cell-based, human; conditions: Olaparib for 48 hours
# Experimental: Cells were seeded at 25,000 cells/mL in 4-well chamber slide 24 hours prior to the addition of siRNA or drug as indicated. Merbarone (Sigma) was dissolved in DMSO and stored at 4° C. Cells were then washed once in PBS, fixed for 15 minutes in 100% methanol, washed in PBS, permeabilized for 5 minutes in PBS containing 0.2% Triton-X, washed twice in PBS, blocked for 30 minutes in PBS containing 0.5% donkey serum (Sigma, St. Louis, Mo.), held for 45 minutes in PBS containing 0.5% donkey serum and primary antibody: anti-γ-H2A.X mouse monoclonal (Millipore Cat #05-636), anti-γ-H2A.X rabbit polyclonal (Cell Signaling, Cat #9719, Danvers, Mass.), and anti-53BP1 rabbit polyclonal (Cell Signaling, Cat #4937, Danvers, Mass.) washed 3 times with PBS, held for 30 minutes in PBS containing 0.5% donkey serum and secondary antibody: Alexa Fluor 488-anti-Mouse (Invitrogen) or Alexa Fluor 594-anti-Rabbit (Invitrogen). Cells were then stained with DAPI for 5 minutes and slides were mounted 12 hours prior to analysis using Vectashield (Vector laboratories, Burlingame, Calif.). Images were taken using 100× oil lens on an Olympus Confocal microscope at the University of Michigan microscopy imaging lab.
structure (smiles),measurement,setting,value
"O=C(c1cc(Cc2n[nH]c(=O)c3ccccc23)ccc1F)N1CCN(C(=O)C2CC2)CC1 [Olaparib, 4-[3-(4-Cyclopropanecarbonylpiperazine-1-carbonyl)-4-fluorobenzyl]-2H-phthalazin-1-one]","potentiated DNA damage (COMET), time course","PC3-ERG cells; PC3-ERG relative to PC3-LACZ, 0.5, 1, 24 and 48 hr exposure, as early as 30 min (p=0.002)",potentiated DNA damage was observed
same,"COMET tail moment increase, ERG positive cells versus controls","PC3-ERG cells; PC3 cells with and without Olaparib, P=0.03, two-way ANOVA",significantly greater increase in the tail moments
same,ERG induced radiation resistance (colony formation),DU145 cells,blocks ERG induced radiation resistance; also recorded: reversed by PARP inhibition
same,sensitivity of Ewing's sarcoma cell lines,[1],sensitive to PARP1; also recorded: sensitive to PARP inhibition
same,COMET tail moments versus Olaparib treated ETS overexpressing cells,BRCA2 shRNA PC3 cells,slightly larger tail moments
same,invasion of RWPE SLC45A3-BRAF (negative control),[2],does now effect invasion
same,ERG-driven cell invasion,[3],blocks ERG-mediated RWPE cell invasion; also recorded: significant reduction
same,γ-H2A.X foci,VCaP cells,very high level of γ-H2A.X foci
